Assay results reported in publication PMC6749586, “Design, Synthesis, and Anticancer Effect Studies of Iridium(III) Polypyridyl Complexes against SGC-7901 Cells” (Molecules, 2019).

Tests used:
[1] = system: SGC-7901 cells; test: Colony-forming assay; type: cell-based, human; settings: 4.0 µM 1, 15.0 µM 2, 15.0 µM 3, 8 days
Experimental: The SGC-7901 cells were seeded at a cell density of 500 cells per well in a 6-well plate. After 24 h, an equal amount of solvent or iridium complexes was added into the medium for another 24 h. Then, the medium containing the tested complexes was removed and replaced with fresh medium. The number of the colonies was counted on the 8th day after seeding and then fixed with paraformaldehyde for 20 min. The colonies were photographed under an inverted microscope after staining with 0.1% (w/v) crystal violet for 20 min. Each experiment was carried out in triplicate.

[2] = system: SGC-7901 cells; test: Western blot analysis of apoptosis-related proteins; type: cell-based, human; settings: 4.0 µM 1, 15.0 µM 2, 15.0 µM 3, 24 h
Experimental: The SGC-7901 cancer cells were seeded on 6-well plates at a density of 5 × 10^5 cells per well. Following incubation for 24 h, the cells were treated with 1–3 for 24 h. Next, total proteins were extracted from the cells after incubation in lysis radioimmunoprecipitation assay (RIPA) buffer for 30 min on ice. After centrifugation (13,000× g, 4 °C, 20 min) of the cell suspension, the supernatants were obtained. Protein concentrations were determined using a BCA (bicinchoninic acid) protein assay kit. Equal amounts of denatured proteins were fractionated by electrophoresis on SDS-polyacrylamide gel at 50 V for 3 h. A pre-stained color protein marker was used as the internal reference. The gels were then segmented, transferred to polyvinylidene fluoride (PVDF) membranes (Millipore, Burlington, MA, USA) and then blocked with 5% non-fat milk in TBST buffer (150 mM NaCl, 20 mM Tris-HCl, 0.05% Tween 20, pH = 8.0) for 2 h. […] Further hybridization with the secondary antibodies (diluted 1:5000) conjugated with horseradish peroxidase was performed after washing the membranes three times in TBST buffer with shaking. Each protein was visualized using an enhanced chemiluminescence (ECL) detection kit, in accordance with the manufacturer’s instructions. Finally, the blot images were photographed by a computerized imaging system.

Row | Compound | Inhibition of colony formation [1] | Expression level of Bax [2] | Expression level of Bcl-2 [2] | Expression level of Bcl-xL [2] | Expression level of phosphorylated p53 (P-p53) [2]
1 | F[P-](F)(F)(F)(F)F.O=[N+]([O-])c1cc2ccc[n+]3c2c2c1ccc[n+]2[Ir-5]312([c]3ccccc3-c3cccc[n+]31)[c]1ccccc1-c1cccc[n+]12 [Complex 1, [Ir(Hppy)2(NP)]PF6] | significant inhibition of colony formation | increased | dramatically decreased | dramatically decreased | dramatically decreased
2 | F[P-](F)(F)(F)(F)F.Nc1c([N+](=O)[O-])c2cccnc2c2ncccc12.[Ir+3].[c-]1ccccc1-c1ccccn1.[c-]1ccccc1-c1ccccn1 [Complex 2, [Ir(Hppy)2(NAP)]PF6] | significant inhibition of colony formation | increased | dramatically decreased | dramatically decreased | dramatically decreased
3 | F[P-](F)(F)(F)(F)F.Nc1c(N)c2cccnc2c2ncccc12.[Ir+3].[c-]1ccccc1-c1ccccn1.[c-]1ccccc1-c1ccccn1 [Complex 3, [Ir(Hppy)2(DAP)]PF6] | significant inhibition of colony formation | increased | dramatically decreased | dramatically decreased | dramatically decreased
